Measured values taken from patent US20240309004A1, “SELECTIVE CYCLIN-DEPENDENT KINASE INHIBITORS AND METHODS OF THERAPEUTIC USE THEREOF” (ViroKyne Therapeutics, LLC, priority 2021, published 2024).

Columns and labels:
[1] = system: Human herpes virus 8 strain BCBL-1; assay: Human herpes virus 8 primary assay, BCBL-1 cells; format: cell-based, Human Herpesvirus 8; conditions: Human gammaherpesvirus 8, BCBL1, strain BCBL-1, BCBL-1 cells
CDK9/cyclin T1 = CDK9/cyclin T1 (Homo sapiens (Human), UniProt P50750); assay: Kinase activity assay, CDK9/cyclin T1; format: biochemical; conditions: Table 3.1.2; 10 μM ATP; 10-dose triplicate starting at 9.827 μM; unit not printed (table 3.1.1 prints M); read-out: CDK9/cyclin T1 kinase activity (IC50)
CDK9/cyclin T1, sequence (P50750 whole entry): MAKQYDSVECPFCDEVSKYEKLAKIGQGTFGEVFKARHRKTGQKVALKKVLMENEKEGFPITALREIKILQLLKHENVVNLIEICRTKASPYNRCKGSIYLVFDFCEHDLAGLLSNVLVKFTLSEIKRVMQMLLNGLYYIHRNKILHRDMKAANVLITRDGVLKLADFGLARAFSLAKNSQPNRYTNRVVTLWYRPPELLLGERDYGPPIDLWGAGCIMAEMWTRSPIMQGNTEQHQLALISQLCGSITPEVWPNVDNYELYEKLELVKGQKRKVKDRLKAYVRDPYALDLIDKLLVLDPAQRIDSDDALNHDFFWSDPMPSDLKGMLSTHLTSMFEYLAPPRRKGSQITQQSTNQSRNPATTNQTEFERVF
CDK9/cyclin T1, sequence (O60563 whole entry partner): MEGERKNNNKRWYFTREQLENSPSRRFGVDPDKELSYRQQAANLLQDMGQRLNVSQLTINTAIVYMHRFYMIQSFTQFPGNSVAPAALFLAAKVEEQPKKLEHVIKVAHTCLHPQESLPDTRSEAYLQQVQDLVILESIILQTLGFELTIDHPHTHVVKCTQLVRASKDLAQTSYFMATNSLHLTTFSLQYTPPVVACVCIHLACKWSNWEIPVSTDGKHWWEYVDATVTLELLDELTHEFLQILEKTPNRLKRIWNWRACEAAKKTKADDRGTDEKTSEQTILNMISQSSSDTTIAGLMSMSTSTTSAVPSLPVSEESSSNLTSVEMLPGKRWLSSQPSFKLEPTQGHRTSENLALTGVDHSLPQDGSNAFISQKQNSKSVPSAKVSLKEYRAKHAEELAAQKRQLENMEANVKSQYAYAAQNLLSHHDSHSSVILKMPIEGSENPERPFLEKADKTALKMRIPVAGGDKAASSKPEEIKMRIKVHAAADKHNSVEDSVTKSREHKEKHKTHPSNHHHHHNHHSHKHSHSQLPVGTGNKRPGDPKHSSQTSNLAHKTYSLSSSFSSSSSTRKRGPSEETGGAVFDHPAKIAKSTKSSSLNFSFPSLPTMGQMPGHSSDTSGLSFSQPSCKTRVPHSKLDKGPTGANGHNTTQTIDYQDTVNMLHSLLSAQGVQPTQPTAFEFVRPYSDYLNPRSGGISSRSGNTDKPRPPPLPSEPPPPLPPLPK

[2] = Cytotoxicity concurrent with HHV-6B primary assay; format: cell-based; conditions: human, MOLT-3 cells
[3] = system: Human papillomavirus 11 strain HE611260.1; assay: Human papillomavirus 11 primary assay (replicon), C-33 A cells; format: cell-based; conditions: strain HE611260.1, C-33 A cells
Source text: (§1) An HPV11 replicon assay was developed and expresses the essential E1 and E2 proteins from the native promoter. The E2 origin binding protein interacts with the virus origin of replication and recruits the E1 replicative helicase which unwinds the DNA and helps to recruit the cellular DNA replication machinery (including DNA polymerases, type I and type II topoisomerases, DNA ligase, single-stranded DNA binding proteins, proliferating cell nuclear antigen). The replication complex then drives the amplification of the replicon which can be assessed by the expression of a destabilized NanoLuc reporter gene carried on the replicon. In this assay, the replicon (pMP619) is transfected into C-33 A cells grown as monolayers in 384-well plates. At 48 h post transfection, the enzymatic activity of the destabilized NanoLuc reporter is assessed with NanoGlo reagent. […] . Beadle et al., 2016.

[4] = Cytotoxicity concurrent with HCMV AD169 primary assay; format: cell-based, human; conditions: human, CC50
[5] = Metabolic stability in mice liver microsomes; conditions: mice liver microsomes, 1 μM compound, 1 mM NADPH, 60 min
Description: Potassium phosphate buffer (Kphos) was prepared by adding 0.647 g potassium phosphate monobasic (KH2PO4) and 3.527 g potassium phosphate dibasic (K2HPO4) to 400 mL of Milli-Q water. pH of the buffer was adjusted to 7.4 and volume was made up to 500 mL.
Stock solutions of the test compounds were prepared in DMSO at a concentration of 1 mM.
To this microsomal mix 1.42 μL (1 mM) of test compound and positive control were spiked, from this mix 70 μL was transferred to 96 well plate and pre-incubated at 37° C. for 5 min. […] The plates were centrifuged at 4000 RPM for 15 min and 100 μL aliquots were submitted for analysis by LC-MS/MS.
Samples were monitored for parent compound disappearance in MRM mode using LC-MS/MS. The LC-MS/MS conditions and MRM chromatogram will be provided as per client request.
The peak area ratios of analyte versus internal standard were used to calculate the % remaining at the end of 60 minutes in presence NADPH.

HCMV strain AD169 = assay: HCMV primary assay (CPE), strain AD169, HFF cells; format: cell-based, Human Cytomegalovirus; conditions: Human betaherpesvirus 5, HCMV primary assay, virus strain AD169, HFF cells
Description: The antiviral activity of the compound against HCMV in the described Primary assay was measured by treating primary Human foreskin fibroblast (HFF) cells infected with HCMV with a range of compound concentrations—description of methods for this assay can be found in section 1.3.2.1. […] . Additional tested assay parameters in this Primary assay can be found in Table 3.2.1 and include EC90, S150, and S190 values—descriptions of those data points can be found in section 3.2.1.

[6] = Cytotoxicity concurrent with HHV-8 primary assay; format: cell-based; conditions: human, BCBL-1 cells
[7] = Cytotoxicity concurrent with HPV11 primary assay; format: cell-based; conditions: human, C-33 A cells
Source text: as §1

[8] = system: Human herpes virus 6B strain Z29; assay: Human herpes virus 6B primary assay, strain Z29, MOLT-3 cells; format: cell-based, Human Herpesvirus 6B; conditions: Human betaherpesvirus 6B

Question: With `Fc1ccc2c(c1)nn1cnc(NC3CCOCC3)cc21` [VKT-320, 7-fluoro-N-(tetrahydro-2H-pyran-4-yl)pyrimido[1,6-b]indazol-3-amine] as the compound, how does the EC50 [1] read?
Answer: The EC50 was 22.1 µM.

Question: And the EC90 [1]?
Answer: Its EC90 is 44.2 µM.

Question: What about the IC50 (CDK9/cyclin T1) of the same compound?
Answer: Its IC50 is 1.68 µM.

Question: And the CC50 at 7 d [2]?
Answer: Its CC50 at 7 d is 50 µM.

Question: And the EC50 [3]?
Answer: The EC50 was 7.99 µM.

Question: What about the EC90 [3] of the same compound?
Answer: The EC90 was 19.8 µM.

Question: And the CC50 [4]?
Answer: Its CC50 is 38.5 µM.

Question: What about the “% Remaining at 60 min” value [5] of the same compound?
Answer: The value was 37%.

Question: And the EC50 (HCMV strain AD169; read-out: EC50)?
Answer: The EC50 was 10 µM.

Question: And the EC90 (HCMV strain AD169; read-out: EC90)?
Answer: The EC90 was 10 µM.

Question: And the CC50 [6]?
Answer: The CC50 was 50 µM.

Question: And the CC50 [7]?
Answer: Its CC50 is 50 µM.

Question: And the EC50 [8]?
Answer: The EC50 was 8.96 µM.

Question: And the EC90 [8]?
Answer: The EC90 was 32.6 µM.
